Data from patent publication US10654816B2, “Compounds and compositions for treating conditions associated with NLRP activity” (NOVARTIS INFLAMMASOME RESEARCH, INC., priority 2017, dated 2020).

Each compound was assayed on IL-1β production in PMA-differentiated THP-1 cells (assay: IL-1β production in PMA-differentiated THP-1 cells stimulated with gramicidin (hTHP-1 assay, HTRF readout; Procedures 1-3)). Details: Homo sapiens, THP-1, hTHP-1 assay containing 2% fetal bovine serum; average; class symbols; read-out: hTHP-1 IC50 (Average IC50 of compounds in hTHP-1 assay).
Type: cell-based, human
Procedure, shortened: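 PMA-differentiated (20 ng/ml, 16-18 h) THP-1 cells in RPMI with 2% FBS, 50,000 cells/well, preincubated 1 h with compound (final 0.0017-100 μM, 0.37% DMSO), then stimulated with 5 μM gramicidin for 2 h. IL-1β in cell-free supernatant measured by HTRF (620/668 nm).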

IC50 [nM] | Structure (SMILES)
1000 to 5000 | NCc1ccc(S(N)(=O)=NC(=O)Nc2c3c(cc4c2CCC4)CCC3)cc1 (single isomer, unassigned) [Example 411, (R) or (S)-4-(aminomethyl)-N′-((1,2,3,5,6,7-hexahydro-s-indacen-4-yl)carbamoyl)benzene-sulfonimidamide]
200 to 1000 | CC(C)Cc1ccc(S(N)(=O)=NC(=O)Nc2c3c(cc4c2CCC4)CCC3)cn1 (single isomer, unassigned) [Example 416, (S) or (R)-N′-((1,2,3,5,6,7-hexahydro-s-indacen-4-yl)carbamoyl)-6-isobutylpyridine-3-sulfonimidamide]
8 to 40 | Cc1oc(S(N)(=O)=NC(=O)Nc2c3c(cc4c2CCC4)CCC3)cc1C(C)(C)O (centres unmarked) [Example 1, N′-(1,2,3,5,6,7-hexahydro-s-indacen-4-ylcarbamoyl)-4-(2-hydroxypropan-2-yl)-5-methylfuran-2-sulfonimidamide]
8 to 40 | Cc1oc([S@@](N)(=O)=NC(=O)Nc2c3c(cc4c2CCC4)CCC3)cc1C(C)(C)O [Example 2, (S)—N′-(1,2,3,5,6,7-hexahydro-s-indacen-4-ylcarbamoyl)-4-(2-hydroxypropan-2-yl)-5-methylfuran-2-sulfonimidamide]
200 to 1000 | CC(C)(C)OC(=O)NS(=O)(=NC(=O)Nc1c2c(cc3c1CCC3)CCC2)c1cnc(C(C)(C)O)s1 (centres unmarked) [Example 7, Tert-butyl N-(1,2,3,5,6,7-hexahydro-s-indacen-4-ylcarbamoyl)-2-(2-hydroxypropan-2-yl)thiazole-5-sulfonimidoylcarbamate]
40 to 200 | Cc1oc(S(N)(=O)=NC(=O)Nc2c(C(C)C)cc(F)cc2C(C)C)cc1C(C)(C)O (centres unmarked) [Example 10, N′-(4-fluoro-2,6-diisopropylphenylcarbamoyl)-4-(2-hydroxypropan-2-yl)-5-methylfuran-2-sulfonimidamide]
5000 to 30000 | CC(C)c1cc(F)cc(C(C)C)c1NC(=O)N=S(N)(=O)c1ccc(C(C)(C)O)cc1 (centres unmarked) [Example 11, N′-(4-fluoro-2,6-diisopropylphenylcarbamoyl)-4-(2-hydroxypropan-2-yl)benzenesulfonimidamide]
40 to 200 | Cc1sc(S(N)(=O)=NC(=O)Nc2c3c(cc4c2CCC4)CCC3)cc1C(C)(C)O (centres unmarked) [Example 12, N′-(1,2,3,5,6,7-hexahydro-s-indacen-4-ylcarbamoyl)-4-(2-hydroxypropan-2-yl)-5-methylthiophene-2-sulfonimidamide]

Same assay, conditions: Homo sapiens, THP-1, hTHP-1 assay containing 2% fetal bovine serum; average; given as bound; read-out: hTHP-1 IC50 (Average IC50 of compounds in hTHP-1 assay)

IC50 [nM] | Structure (SMILES)
> 30000 | NCc1ccc(S(N)(=O)=NC(=O)Nc2c3c(cc4c2CCC4)CCC3)cc1 (single isomer, unassigned) [Example 412, (S) or (R)-4-(aminomethyl)-N′-((1,2,3,5,6,7-hexahydro-s-indacen-4-yl)carbamoyl)benzene-sulfonimidamide]
> 30000 | CC(C)Cc1ccc(S(N)(=O)=NC(=O)Nc2c3c(cc4c2CCC4)CCC3)cn1 (single isomer, unassigned) [Example 415, (R) or (S)-N′-((1,2,3,5,6,7-hexahydro-s-indacen-4-yl)carbamoyl)-6-isobutylpyridine-3-sulfonimidamide]
> 30000 | CC(C)c1cc(-c2ccccc2CO)cc(C(C)C)c1NC(=O)N=S(N)(=O)c1ccc(CN(C)C)cc1 (centres unmarked) [Compound 249]
> 30000 | Cc1cc(NC(=O)N=S(N)(=O)c2cc(C)c(C(C)(C)O)s2)cc(C)n1 (centres unmarked) [Example 9, N′-((2,6-dimethylpyridin-4-yl)carbamoyl)-4-methyl-5-(2-hydroxypropan-2-yl)thiophene-2-sulfonimidamide]
